Laboratory results: patent US12655116B2, “Substituted isophthalic acid diamides” (Bayer Aktiengesellschaft, priority 2020, dated 2026)

What was measured:
AMARE [1] = assay: Pre-emergence herbicidal action against AMARE; type: in vivo, Amaranthus retroflexus
Summary of the method: (§1)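 Pre-emergence soil-surface spray of formulated compound (WP or EC; 600 to 800 l/ha; 0.2% wetting agent) over seeds sown in sandy loam. After 3 weeks under greenhouse conditions, damage is estimated visually in percent against untreated plants.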

DIGSA = assay: Pre-emergence herbicidal action against DIGSA; type: in vivo, Digitaria sanguinalis
Summary of the method: as §1

ABUTH [2] = assay: Pre-emergence herbicidal action against ABUTH; type: in vivo, Abutilon theophrasti; details: for Pre-emergence action against ABUTH (herbicidal activity): 80 g/ha, scored visually after 3 weeks vs untreated controls (100% = plants have died, 0% = like control plants)
Summary of the method: as §1

VIOTR [3] = assay: Pre-emergence herbicidal action against VIOTR; type: in vivo, Viola tricolor
Summary of the method: as §1

VERPE [4] = assay: Post-emergence herbicidal action against VERPE; type: in vivo, Veronica persica
Summary of the method: (§2)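 Greenhouse plants in sandy loam were sprayed at the one-leaf stage, 2 to 3 weeks after sowing, with WP or EC formulations as aqueous suspension or emulsion (600 to 800 l/ha water, 0.2% wetting agent). Visual damage was scored about 3 weeks later versus untreated controls, 0% = like control, 100% = dead.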

STEME = assay: Pre-emergence herbicidal action against STEME; type: in vivo, Stellaria media; details: dosage 80 g/ha
Excerpt: Seeds of monocotyledonous and dicotyledonous weed plants and crop plants are laid out in sandy loam soil in wood-fiber pots and covered with soil. The compounds of the invention, formulated in the form of wettable powders (WP) or as emulsion concentrates (EC), are then applied to the surface of the covering soil in the form of an aqueous suspension or emulsion at a water application rate equivalent to 600 to 800 l/ha, with addition of 0.2% wetting agent. After the treatment, the pots are placed in a greenhouse and kept under good growth conditions for the trial plants. The damage to the test plants is scored visually after a test period of 3 weeks by comparison with untreated controls (herbicidal activity in percent (%): 100% activity=the plants have died, 0% activity=like control plants). […] The tables below illustrate, in an illustrative manner, the post-emergence herbicidal action of the compounds of the invention, the herbicidal activity being stated in percent.

MATIN [5] = assay: Pre-emergence herbicidal action against MATIN; type: in vivo, Matricaria inodora
Summary of the method: as §1

AMARE [6] = assay: Post-emergence herbicidal action against AMARE; type: in vivo, Amaranthus retroflexus; details: 20 g/ha, visual assessment about 3 weeks after treatment, 100% = plants have died, 0% = like control plants
Summary of the method: as §2

POLCO = assay: Pre-emergence herbicidal action against POLCO; type: in vivo, Polygonum convolvulus; details: dosage 80 g/ha
Summary of the method: as §1

ECHCG [7] = assay: Pre-emergence herbicidal action against ECHCG; type: in vivo, Echinochloa crus-galli
Summary of the method: as §1

MATIN [8] = assay: Post-emergence herbicidal action against MATIN; type: in vivo, Matricaria inodora
Summary of the method: as §2

AVEFA = assay: Post-emergence herbicidal action against AVEFA; type: in vivo, Avena fatua; details: 20 g/ha, visual assessment about 3 weeks after treatment, 100% = plants have died, 0% = like control plants
Protocol: Seeds of monocotyledonous and dicotyledonous weed and crop plants are laid out in sandy loam soil in wood-fiber pots, covered with soil and cultivated in a greenhouse under good growth conditions. 2 to 3 weeks after sowing, the test plants are treated at the one-leaf stage. The compounds of the invention, formulated in the form of wettable powders (WP) or as emulsion concentrates (EC), are then sprayed onto the green parts of the plants in the form of an aqueous suspension or emulsion at a water application rate equivalent to 600 to 800 l/ha, with addition of 0.2% wetting agent. After the test plants have been left to stand in the greenhouse under optimal growth conditions for about 3 weeks, the action of the preparations is assessed visually in comparison to untreated controls (herbicidal action in percent (%): 100% activity=the plants have died, 0% activity=like control plants). […] The tables below illustrate, in an illustrative manner, the post-emergence herbicidal action of the compounds of the invention, the herbicidal activity being stated in percent.

VERPE [9] = assay: Pre-emergence herbicidal action against VERPE; type: in vivo, Veronica persica; details: dosage 80 g/ha
Summary of the method: as §1

ABUTH [10] = assay: Post-emergence herbicidal action against ABUTH; type: in vivo, Abutilon theophrasti; details: dosage 20 g/ha, visual assessment about 3 weeks after treatment vs untreated controls
Summary of the method: as §2

SETVI [11] = assay: Pre-emergence herbicidal action against SETVI; type: in vivo, Setaria viridis; details: dosage 80 g/ha
Summary of the method: as §1

VIOTR [12] = assay: Post-emergence herbicidal action against VIOTR; type: in vivo, Viola tricolor
Summary of the method: as §2

ECHCG [13] = assay: Post-emergence herbicidal action against ECHCG; type: in vivo, Echinochloa crus-galli
Summary of the method: as §2

PHBPU = assay: Post-emergence herbicidal action against PHBPU; type: in vivo, Pharbitis purpurea; details: dosage 20 g/ha
Summary of the method: as §2

ALOMY [14] = assay: Post-emergence herbicidal action against ALOMY; type: in vivo, Alopecurus myosuroides; details: dosage 20 g/ha, visual assessment about 3 weeks after treatment vs untreated controls
Summary of the method: as §2

SETVI [15] = assay: Post-emergence herbicidal action against SETVI; type: in vivo, Setaria viridis; details: dosage 20 g/ha
Summary of the method: as §2

ALOMY [16] = assay: Pre-emergence herbicidal action against ALOMY; type: in vivo, Alopecurus myosuroides; details: 80 g/ha, pre-emergence, scored visually after 3 weeks vs untreated controls (100% = plants have died, 0% = like control plants)
Summary of the method: as §1

[17] = 20 g/ha, scored visually after 3 weeks vs untreated controls, 100% = plants have died, 0% = like control plants
[18] = 80 g/ha, scored visually after 3 weeks vs untreated controls (100% = plants have died, 0% = like control plants)

Compound: CCn1nnnc1NC(=O)c1ccc(S(C)(=O)=O)c(C(=O)NC)c1Cl [Example 2-123]
- Pre-emergence action against AMARE in % (AMARE [1]; [17]): 80%
- Pre-emergence action against AMARE in % (AMARE [1]; [18]): 100%
- Pre-emergence action against DIGSA in % (DIGSA; dosage 20 g/ha): 80%
- Pre-emergence action against DIGSA in % (DIGSA; dosage 80 g/ha): 90%
- Pre-emergence action against ABUTH (herbicidal activity) (ABUTH [2]): 100%
- Pre-emergence action against VIOTR in % (VIOTR [3]; dosage 80 g/ha): 80%
- Post-emergence action against VERPE in % (VERPE [4]; 20 g/ha): 80%
- Pre-emergence action against STEME in % (STEME): 80%
- Pre-emergence action against MATIN in % (MATIN [5]; dosage 20 g/ha): 80%
- Pre-emergence action against MATIN in % (MATIN [5]; dosage 80 g/ha): 100%
- Post-emergence action at 20 g/ha against AMARE in % (AMARE [6]): 80%
- Pre-emergence action against POLCO in % (POLCO): 80%

Compound: CSc1c(C(=O)Nc2nnnn2C)ccc(C(F)F)c1C(=O)NC(C)C1CC1 (stereo not drawn) [Example 1-353]
- Pre-emergence action against ECHCG in % (ECHCG [7]; 20 g/ha): 90%
- Pre-emergence action against ECHCG in % (ECHCG [7]; 80 g/ha): 100%
- Pre-emergence action against AMARE in % (AMARE [1]; [17]): 100%
- Pre-emergence action against AMARE in % (AMARE [1]; [18]): 100%
- Post-emergence action against MATIN in % (MATIN [8]; dosage 5 g/ha): 80%
- Post-emergence action against MATIN in % (MATIN [8]; dosage 20 g/ha): 90%
- Post-emergence action at 20 g/ha against AVEFA in % (AVEFA): 80%
- Pre-emergence action against VERPE in % (VERPE [9]): 100%
- Post-emergence action against ABUTH in % (ABUTH [10]): 80%
- Pre-emergence action against ABUTH (herbicidal activity) (ABUTH [2]): 100%
- Pre-emergence action against ABUTH (herbicidal activity in percent) (ABUTH [2]; dosage 20 g/ha, scored visually after 3 weeks vs untreated controls, 100% = plants have died, 0% = like control plants): 100%
- Pre-emergence action against SETVI in % (SETVI [11]): 100%
- Pre-emergence action against VIOTR in % (VIOTR [3]; dosage 20 g/ha): 100%
- Pre-emergence action against VIOTR in % (VIOTR [3]; dosage 80 g/ha): 100%
- Post-emergence action against VERPE in % (VERPE [4]; 5 g/ha): 80%
- Post-emergence action against VERPE in % (VERPE [4]; 20 g/ha): 90%
- Post-emergence action against VIOTR in % (VIOTR [12]; 5 g/ha): 100%
- Post-emergence action against VIOTR in % (VIOTR [12]; 20 g/ha): 100%
- Pre-emergence action against MATIN in % (MATIN [5]; dosage 20 g/ha): 100%
- Pre-emergence action against MATIN in % (MATIN [5]; dosage 80 g/ha): 100%
- Post-emergence action against ECHCG in % (ECHCG [13]; dosage 5 g/ha): 100%
- Post-emergence action against ECHCG in % (ECHCG [13]; dosage 20 g/ha): 100%
- Post-emergence action against PHBPU in % (PHBPU): 90%
- Post-emergence action at 20 g/ha against AMARE in % (AMARE [6]): 100%
- Post-emergence action against ALOMY in % (ALOMY [14]): 80%
- Post-emergence action against SETVI in % (SETVI [15]): 100%
- Pre-emergence action against ALOMY (herbicidal activity) (ALOMY [16]): 90%
